Data published in ChEMBL document CHEMBL4406872, “Synthesis and structure activity relationship of 1, 3-benzo-thiazine-2-thiones as selective HDAC8 inhibitors” (Eur J Med Chem, 2019).

test: physchem; settings: bicarbonate buffer

Row | SMILES | remaining at 24 h, 5000 µM [%]
1 | Fc1ccc2c(c1)C1=NCCN1C(=S)S2 | > 95
2 | S=C1Sc2cc(Br)ccc2C2=NCCCN12 | > 95
3 | Cc1cccc2c1C1=NCCN1C(=S)S2 | > 95
4 | N=C1Sc2ccccc2C2=NCCCN12 | < 5
